Tests used:
[1] = target: T1, soluble guanylate cyclase (sGC) (Homo sapiens (Human), UniProt Q02108+Q02153); test: sGC-HEK-cGMP assay with SNP incubation, LC/MS detection (Example 2A); assay type: cell-based; details: HEK293 cells, 10 μM SNP, LC/MS detection; for Emax: 100% = BAY 41-2272 at 10 μM, read-out: HEK assay Emax - unconstrained (%)
How it was run: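 HEK293 cells with endogenous sGC were pretreated 15 min at 37 °C with 0.5 mM IBMX, then exposed 10 min at 37 °C to compound (added from 0.0001–30 μM solutions) plus SNP (from 10 μM solution). After 0.1 M HCl lysis, cGMP was quantified by LC/MS against a standard curve.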

Sprague-Dawley rats = test: Blood pressure change in Sprague-Dawley rats (Example 4); assay type: in vivo, rat; details: conscious male Sprague-Dawley rats, PO, 10 mg/kg
Experimental: Male rats (250-350 g body weight, supplied by Harlan Laboratories) were anesthetized with ketamine/xylazine and a heparinized saline fluid filled catheter implanted into the right femoral artery. The catheter was exteriorized between the scapula, capped, and the animal allowed to recover for at least 7 days post surgery prior to any compound testing. Prior to testing animals were maintained on normal diet, with free access to drinking water, under a 12 hour light-dark cycle.
On the day of experimentation, under inhaled isoflurane anesthesia, the catheter was uncapped and connected to a tether (Instech Labs) and pressure transducer (Harvard Apparatus). Blood pressure and heart rate were subsequently captured and analyzed with a dedicated data capture system (PowerLab, ADInstruments). Data sampling rates were set at 1 cycle per second. Once connected, each rat was allowed to recover from anesthesia and baseline blood pressure and heart rate levels were established in these conscious, freely-moving animals. Once baseline was established either vehicle (0.5% methylcellulose or 100% PEG400) or test article was administered orally (PO, 10 mg/kg) and the effects on blood pressure and heart rate monitored for up to 24 hours.
Data are reported as hourly averages and changes in blood pressure are calculated from subtracting individual baseline on an hourly basis.

[2] = target: T1, soluble guanylate cyclase (sGC); test: sGC-HEK-cGMP assay, new protocol with DETA-NONOate, LC/MS detection (Example 2C); assay type: cell-based; details: read-out: Absolute EC50 (uM) - binned
[3] = target: T1, soluble guanylate cyclase (sGC); test: sGC-HEK-cGMP assay with SNP incubation, HTRF detection (Example 2B); assay type: cell-based; details: HEK293 cells, 10 μM SNP; for Emax: 100% = BAY 41-2272 at 10 μM + 100 μM SNP, read-out: HEK assay Emax - unconstrained (%); for EC50: read-out: HEK assay EC50 - unconstrained
Experimental: Human embryonic kidney cells (HEK293), endogenously expressing soluble guanylate cyclase (sGC), were used to evaluate the activity of test compounds. Compounds stimulating the sGC enzyme should cause an increase in the intracellular concentration of cGMP. HEK 293 cells were seeded in Dulbecco's Modification of Eagle's Medium supplemented with fetal bovine serum (10% final) and L-glutamine (2 mM final) in a 200 μL volume at a density of 1×10^5 cells/well in a poly-D-lysine coated 96 well flat bottom plate and grown overnight at 37° C. Medium was aspirated and cells were washed with 1× Hank's Buffered Saline Salt Solution (200 μL). Cells were then incubated for 15 minutes at 37° C. with 200 μL of a 0.5 mM 3-isobutyl-1-methylxanthine (IBMX) solution. Test article and sodium nitroprusside solutions were then added to the assay mixture (2 μL each) and the resulting mixture incubated at 37° C. for 10 minutes. After the 10 minute incubation, the assay mixture was aspirated and 0.1M HCl (200 μL) was added to the cells. The plate was incubated at 4° C. for 30 minutes in the 0.1M HCl to stop the reaction and lyse the cells. The plates were then centrifuged at 1,200 g for 5 minutes at room temperature. GMP levels were determined using a cGMP HTRF assay (Cisbio Product #62GM2PEC). For each sample, 5 uL of HEK assay supernatant was diluted 1:5 in HTRF kit assay diluent and transferred to a well of the assay plate, and the HTRF assay was performed according to the HTRF kit manufacturer's instructions. Sample calculations were performed using high and low controls, where high control was supernatant from HEK assay performed in the presence of 10 uM Bay 41-2272+100 uM SNP, and the low control was the supernatant from the HEK assay performed in the presence of vehicle. A cGMP standard solution was prepared in 0.1 M HCl and diluted in order to perform a cGMP standard curve using the HTRF assay. Using Mean Ratio data from the HTRF assay, sample date were normalized according to the equation: 100*(Sample−Low Control)/(High Control−Low Control). Data were fit to a 3-parameter log agonist dose response (Top (% EMax), Bottom, log EC50) using Graphpad (Prism Software). Data in Table 4 was obtained using this modified assay procedure. (x μM concentration for test article solution and 10 μM concentration for SNP solution; wherein x is one of the following concentrations: 30 μM, 10 μM, 3 μM, 1 μM, 0.3 μM, 0.1 μM, 0.03 μM, 0.01 μM, 0.003 μM, 0.001 μM, 0.0003 μM and 0.01 nM.

[4] = top of curve not fitted to 100%, read-out: HEK assay EC50 - unconstrained
[5] = top of curve fitted to 100%, read-out: HEK assay EC50 - constrained

T1 sequence (Q02153 whole entry): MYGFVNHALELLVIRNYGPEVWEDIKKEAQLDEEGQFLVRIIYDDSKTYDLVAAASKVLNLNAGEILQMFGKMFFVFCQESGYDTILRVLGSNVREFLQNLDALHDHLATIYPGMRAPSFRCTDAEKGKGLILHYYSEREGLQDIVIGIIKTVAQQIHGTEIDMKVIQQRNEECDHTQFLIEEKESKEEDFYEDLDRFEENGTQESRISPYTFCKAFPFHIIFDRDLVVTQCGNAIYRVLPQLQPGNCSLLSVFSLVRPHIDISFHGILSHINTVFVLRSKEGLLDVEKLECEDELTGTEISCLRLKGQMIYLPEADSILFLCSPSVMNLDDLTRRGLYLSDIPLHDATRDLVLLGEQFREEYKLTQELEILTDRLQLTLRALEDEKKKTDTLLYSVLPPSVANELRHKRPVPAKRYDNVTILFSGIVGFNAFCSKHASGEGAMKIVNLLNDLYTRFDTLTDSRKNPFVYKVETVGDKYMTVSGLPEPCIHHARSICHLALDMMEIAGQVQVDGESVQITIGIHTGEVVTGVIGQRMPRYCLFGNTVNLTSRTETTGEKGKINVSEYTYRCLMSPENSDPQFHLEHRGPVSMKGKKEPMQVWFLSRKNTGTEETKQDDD
T1 sequence (Q02108 whole entry): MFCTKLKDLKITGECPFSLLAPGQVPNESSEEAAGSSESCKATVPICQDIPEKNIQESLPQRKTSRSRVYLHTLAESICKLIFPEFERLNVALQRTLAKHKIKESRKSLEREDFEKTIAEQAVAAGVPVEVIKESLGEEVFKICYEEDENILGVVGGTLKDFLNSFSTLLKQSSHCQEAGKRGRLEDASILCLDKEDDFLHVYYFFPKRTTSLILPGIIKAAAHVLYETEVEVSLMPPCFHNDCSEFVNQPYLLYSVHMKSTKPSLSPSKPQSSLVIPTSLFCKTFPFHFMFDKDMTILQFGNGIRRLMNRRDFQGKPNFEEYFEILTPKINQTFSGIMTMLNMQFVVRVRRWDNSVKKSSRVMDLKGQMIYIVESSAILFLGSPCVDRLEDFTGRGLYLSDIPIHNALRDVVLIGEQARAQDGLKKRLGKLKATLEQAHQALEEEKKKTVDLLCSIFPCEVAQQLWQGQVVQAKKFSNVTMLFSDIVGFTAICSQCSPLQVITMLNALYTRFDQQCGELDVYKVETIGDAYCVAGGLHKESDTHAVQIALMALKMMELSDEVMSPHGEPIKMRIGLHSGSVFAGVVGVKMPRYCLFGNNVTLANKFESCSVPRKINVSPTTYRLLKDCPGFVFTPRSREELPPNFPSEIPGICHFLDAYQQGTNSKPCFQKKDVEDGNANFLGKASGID

| Emax [3] | EC50 [3] | SMILES | Emax [1] | EC50 [1, 4] | Rat Mean Arterial Pressure peak change from baseline at 10 mpk (Sprague-Dawley rats) | EC50 [2] | EC50 [1, 5] |
| --- | --- | --- | --- | --- | --- | --- | --- |
| – | – | CC(C)C1(C(=O)O)CCN(c2nc(-c3cc(-c4ccon4)n(Cc4ccccc4F)n3)ncc2F)CC1 [Compound I-306] | 80 to 100% | 1 to 100 nM | B (B = −20 ≤ peak change from baseline at 10 mpk ≤ −10) | < 0.1 µM | – |
| – | – | CN(CC1(C(=O)O)CCC1)c1nc(-c2cc(-c3ccon3)n(Cc3ccccc3F)n2)ncc1F [Compound I-342] | – | – | C (C = peak change from baseline at 10 mpk < −20) | < 0.1 µM | – |
| – | – | O=C(O)C1(c2ccccc2)CCN(c2nc(-c3cc(-c4ccon4)n(Cc4ccccc4F)n3)ncc2F)CC1 [Compound I-186] | 80 to 100% | 1 to 100 nM | B (B = −20 ≤ peak change from baseline at 10 mpk ≤ −10) | < 0.1 µM | – |
| – | – | CC(C)[C@@H](C(=O)O)N(C)c1nc(-c2cc(-c3ccon3)n(Cc3ccccc3F)n2)ncc1F [Compound I-89] | 60 to 80% | 1 to 100 nM | C (C = peak change from baseline at 10 mpk < −20) | < 0.1 µM | – |
| 80 to 100% | 1 to 100 nM | O=C(O)[C@H]1[C@@H]2CN(c3nc(-c4cc(-c5ccon5)n(Cc5ccccc5F)n4)ncc3F)C[C@@H]21 [Compound I-271] | – | – | – | – | – |
| – | – | OC(CNc1nc(-c2cc(-c3ccon3)n(Cc3ccccc3F)n2)ncc1F)(C(F)(F)F)C(F)(F)F [Compound I-324] | – | – | C (C = peak change from baseline at 10 mpk < −20) | 0.101 to 1 µM | – |
| – | – | O=C(Nc1ccnc(-c2cc(-c3ccon3)n(Cc3ccccc3F)n2)n1)C(O)(C(F)(F)F)C(F)(F)F [Compound I-400] | – | – | B (B = −20 ≤ peak change from baseline at 10 mpk ≤ −10) | 0.101 to 1 µM | – |
| – | – | CC(C)[C@@H](C(=O)NS(=O)(=O)C1CC1)N(C)c1nc(-c2cc(-c3ccon3)n(Cc3ccccc3F)n2)ncc1F [Compound I-187] | 80 to 100% | 1 to 100 nM | A (A = −10 < peak change from baseline at 10 mpk < 0) | < 0.1 µM | – |
| 100 to 120% | 500 to 1000 nM | CC1(C(=O)O)CCN(c2nc(-c3nc(-c4ccon4)n(Cc4ccccc4F)n3)ncc2F)CC1 [Compound I-249] | 60 to 80% | 1000 to 5000 nM | – | – | – |
| – | – | NC(=O)C(O)(CNc1nc(-c2cc(-c3ccon3)n(Cc3ccccc3F)n2)ncc1F)C(F)(F)F (centres unmarked) [Compound I-405] | – | – | C (C = peak change from baseline at 10 mpk < −20) | 0.101 to 1 µM | – |
| – | – | C[C@H]1CCCN(c2nc(-c3cc(-c4ccon4)n(Cc4ccccc4F)n3)ncc2F)[C@H]1c1nn[nH]n1 [Compound I-341] | – | – | A (A = −10 < peak change from baseline at 10 mpk < 0) | < 0.1 µM | – |
| – | – | OC[C@@H](O)CNc1nc(-c2cc(-c3ccon3)n(Cc3ccccc3F)n2)ncc1F [Compound I-313] | – | – | C (C = peak change from baseline at 10 mpk < −20) | < 0.1 µM | – |
| 80 to 100% | – | Fc1ccccc1Cn1nc(-c2ncc(F)c(N3CCOCC3)n2)cc1-c1ccon1 [Compound I-3] | 60 to 80% | – | – | – | – |
| – | – | O=S(=O)(NC1CN(c2nc(-c3cc(-c4ccon4)n(Cc4ccccc4F)n3)ncc2F)C1)C(F)(F)F [Compound I-388] | – | – | B (B = −20 ≤ peak change from baseline at 10 mpk ≤ −10) | < 0.1 µM | – |
| – | – | OCC(CO)Nc1nc(-c2cc(-c3ccon3)n(Cc3ccccc3F)n2)ncc1F [Compound I-315] | – | – | C (C = peak change from baseline at 10 mpk < −20) | < 0.1 µM | – |
| – | – | OC(CNc1nc(-c2cc(-c3ccon3)n(Cc3ccccc3F)n2)ncc1F)C(F)(F)F (centres unmarked) [Compound I-337] | – | – | C (C = peak change from baseline at 10 mpk < −20) | < 0.1 µM | – |
| 40 to 60% | 100 to 500 nM | N#Cc1cnc(-c2cc(-c3ccon3)n(Cc3ccccc3F)n2)nc1N1CCOCC1 [Compound I-29] | – | – | – | – | – |
| 80 to 100% | 100 to 500 nM | Fc1ccccc1Cn1nc(-c2ncc(F)c(NC3CCNCC3)n2)cc1-c1ccon1 [Compound I-36] | 40 to 60% | 1000 to 5000 nM | – | – | – |
| – | – | O=C(O)C1(C(F)(F)F)CCN(c2nc(-c3cc(-c4ccon4)n(Cc4ccccc4F)n3)ncc2F)C1 (centres unmarked) [Compound I-185] | 100 to 120% | 1000 to 5000 nM | A (A = −10 < peak change from baseline at 10 mpk < 0) | – | – |
| 80 to 100% | 500 to 1000 nM | COC(=O)Nc1nc(-c2cc(-c3ccon3)n(Cc3ccccc3F)n2)ncc1F [Compound I-51] | – | – | – | – | 1000 to 5000 nM |
| – | – | CC1(C(=O)O)CCN(c2nc(-c3cc(-c4ccon4)n(Cc4ccccc4F)n3)ncc2F)C1 (centres unmarked) [Compound I-143] | 80 to 100% | 100 to 500 nM | B (B = −20 ≤ peak change from baseline at 10 mpk ≤ −10) | – | – |
| – | – | CC(O)(CNc1nc(-c2cc(-c3ccon3)n(Cc3ccccc3F)n2)ncc1F)C(N)=O (centres unmarked) [Compound I-389] | – | – | C (C = peak change from baseline at 10 mpk < −20) | < 0.1 µM | – |
| – | – | CC1(C(=O)O)CCN(c2nc(-c3cc(-c4ccon4)n(Cc4ccccc4F)n3)ncc2F)CC1 [Compound I-124] | 60 to 80% | 1 to 100 nM | B (B = −20 ≤ peak change from baseline at 10 mpk ≤ −10) | – | – |
| – | – | OC[C@H](O)CNc1nc(-c2cc(-c3ccon3)n(Cc3ccccc3F)n2)ncc1F [Compound I-316] | – | – | C (C = peak change from baseline at 10 mpk < −20) | < 0.1 µM | – |

| SMILES | Emax [3] | EC50 [3] | Emax [1] | EC50 [1, 4] | Rat Mean Arterial Pressure peak change from baseline at 10 mpk (Sprague-Dawley rats) | EC50 [2] | EC50 [1, 5] |
| --- | --- | --- | --- | --- | --- | --- | --- |
| CC(C)C[C@H](C(=O)O)N(C)c1nc(-c2cc(-c3ccon3)n(Cc3ccccc3F)n2)ncc1F [Compound I-221] | 100 to 120% | 1000 to 5000 nM | 0 to 10% | > 10000 nM | – | < 0.1 µM | – |
| O=C(O)CNc1nc(-c2cc(-c3ccon3)n(Cc3ccccc3F)n2)ncc1F [Compound I-67] | 60 to 80% | 1000 to 5000 nM | 80 to 100% | 5000 to 10000 nM | – | > 1 µM | > 10000 nM |
| CC(C)[C@@H](C(=O)O)N(C)c1nc(-c2nc(-c3ccon3)n(Cc3ccccc3F)n2)ncc1F [Compound I-200] | 100 to 120% | 1000 to 5000 nM | 80 to 100% | 5000 to 10000 nM | – | > 1 µM | 1000 to 5000 nM |
| Fc1ccccc1Cn1nc(-c2ncc(F)c(N3CCn4c(nnc4C(F)(F)F)C3)n2)cc1-c1ccon1 [Compound I-16] | 100 to 120% | 1 to 100 nM | 100 to 120% | 1 to 100 nM | – | < 0.1 µM | – |
